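Assay format: 96-well plates, 48-hour exposure. GI50 is the concentration that inhibits growth by half. The concentration for full growth arrest is given as TGI.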
What was measured:
Experiment in all cases: NCI tumour cell line growth inhibition, 48 h
HCT-15 colon = test system: HCT-15 colon
LOX IMVI melanoma = test system: LOX IMVI melanoma
NCI/ADR-RES ovarian = test system: NCI/ADR-RES ovarian
OVCAR-3 ovarian = test system: OVCAR-3 ovarian
OVCAR-4 ovarian = test system: OVCAR-4 ovarian
SK-MEL-28 melanoma = test system: SK-MEL-28 melanoma
SW-620 colon = test system: SW-620 colon
T-47D breast = test system: T-47D breast
TK-10 renal = test system: TK-10 renal
U251 CNS = test system: U251 CNS

SMILES | GI50 (HCT-15 colon) [µM] | TGI (HCT-15 colon) [µM] | GI50 (LOX IMVI melanoma) [µM] | TGI (LOX IMVI melanoma) [µM] | GI50 (NCI/ADR-RES ovarian) [µM] | TGI (NCI/ADR-RES ovarian) [µM] | GI50 (OVCAR-3 ovarian) [µM] | TGI (OVCAR-3 ovarian) [µM] | GI50 (OVCAR-4 ovarian) [µM] | TGI (OVCAR-4 ovarian) [µM] | GI50 (SK-MEL-28 melanoma) [µM] | TGI (SK-MEL-28 melanoma) [µM] | GI50 (SW-620 colon) [µM] | TGI (SW-620 colon) [µM] | GI50 (T-47D breast) [µM] | TGI (T-47D breast) [µM] | GI50 (TK-10 renal) [µM] | TGI (TK-10 renal) [µM] | GI50 (U251 CNS) [µM] | TGI (U251 CNS) [µM]
O=C1/C(=C/c2ccc([N+](=O)[O-])s2)Oc2ccc(Cl)cc21 | 0.192 | 0.55 | 0.239 | 0.598 | 0.738 | 2.89 | 0.229 | 0.48 | 0.406 | 0.897 | 0.336 | 0.881 | 0.206 | 0.49 | 0.309 | 1.64 | 0.372 | 26.9 | 0.263 | 0.694
Cn1c(N)cc(=O)nc1N | – | > 100 | – | > 100 | – | > 100 | – | > 100 | – | > 100 | – | > 100 | – | > 100 | – | > 100 | – | > 100 | – | > 100
CN(C)CCCn1c2c(c3ccc([N+](=O)[O-])cc3c1=O)C(=O)c1ccccc1-2 | 10.6 | 35.8 | 2.87 | 13.3 | 7.22 | 34.5 | 25.6 | 70.5 | 27.6 | > 100 | > 100 | > 100 | 5.7 | > 100 | 24.1 | > 100 | 15.3 | 73.7 | 6.36 | 27.7
COc1ccc(/C(C)=C(\c2ccc(Cl)cc2)c2ccc(OCCN3CCCCC3)cc2)cc1F | 0.943 | 3.37 | 2.42 | 4.64 | 3.53 | 9.67 | 3.25 | 6.65 | 2.99 | 8.99 | 2.67 | 5.3 | 2.34 | 5.35 | 4.25 | 14.5 | 3.49 | 9.12 | 2.68 | 6.51
O=C1C2=C(Nc3cc([N+](=O)[O-])ccc3N2)OC1c1c[nH]c2ccc(COc3ccccc3)cc12 (stereo not given) | – | > 100 | – | > 100 | – | > 100 | – | > 100 | – | > 100 | – | > 100 | – | > 100 | – | > 100 | – | > 100 | – | > 100
CCN(CC)CCC(CNc1c2ccc(Cl)cc2nc2ccc(OC)cc12)c1ccccc1 (stereo not given) | 0.902 | 4.33 | 1 | 2.39 | 1.28 | 5.12 | 1.71 | 4.7 | 1.64 | 4.26 | 1.84 | 3.27 | 0.538 | 2.15 | 2.25 | 4.96 | 0.915 | 2.8 | 1.56 | 3.21
CCOC(=O)c1ccccc1NC(c1ccccc1)c1ccc2cccnc2c1O (stereo not given) | 2.11 | 23.5 | 2.45 | 11 | 2.78 | 21.4 | 3.85 | 23.4 | 3.21 | > 100 | 3.19 | > 100 | 3.89 | > 100 | 4.22 | > 100 | 5.52 | > 100 | 2.75 | 16.5
Cn1cnc2nc(Cl)nc(Cl)c21 | 2.58 | 20.7 | 0.406 | 16.8 | 2.76 | 13 | 1.84 | 6.12 | 4.7 | 17.6 | 4.35 | 16.5 | 0.469 | 15.5 | 0.489 | 26.8 | 3.84 | 26.2 | 3.27 | 11.7
CN1CCN(Cc2ccc(NC(=O)c3cncc(C#Cc4c(N)ncc5ccc(F)cc45)c3)cc2C(F)(F)F)CC1 | 0.487 | 6.85 | 0.303 | 1.05 | 1.89 | 5.83 | 4.07 | 16.5 | 0.825 | 3.87 | 0.621 | 1.37 | 0.206 | 1.13 | 23.8 | 50 | 0.96 | 2.29 | 1.05 | 4
CC1SC(c2cccc(Oc3ccccc3)c2)N(CCc2cccs2)C1=O (stereo not given) | 1.08 | 3.77 | 0.883 | 2.11 | 0.708 | 3.01 | 1.08 | 2.3 | 0.425 | 1.88 | 1.42 | 2.78 | 1.4 | 3 | 0.594 | 5.11 | 1.59 | 4.28 | 1.11 | 2.49
Cc1nc2cc(NC(=O)CN3CCN(CCN4C(=O)c5cccc6cccc(c56)C4=O)CC3)ccc2s1 | 3.58 | 16.5 | 4.15 | 15.6 | 4.05 | 29.5 | 7.91 | 20.7 | 5.33 | > 100 | 11.1 | 23.1 | 2.6 | 24.3 | 3.07 | 17.9 | 7.91 | 21.7 | 4.37 | 18.9
